Test results published in patent US11214593B2, “Anticancer peptides and uses thereof” (SUIGENERIS FARMACOSMETICS, S.L., priority 2017, dated 2022).
No end group written: not given here.

Key:
[1] = system: human umbilical cord primary endothelial cells (HUVEC); experiment: In vitro proliferation assay to test toxicity (Assay 2, crystal violet staining); format: cell-based; details: 10 μM up to 40 μM final concentration, 72 h, FIG. 2
Text: (§1) The BXPC3 cell line from primary adenocarcinoma of human pancreas was provided by the Biomedical Research Institute (IRB) of Barcelona, and human umbilical cord primary endothelial cells (HUVEC) were obtained directly by the investigator and stored in liquid nitrogen in the laboratory. BXPC3 cells were maintained in RPMI-1640 culture medium (Gibco) supplemented with 10% fetal bovine serum and antibiotics. HUVEC cells were maintained in M199 culture medium (Gibco) supplemented with 20% fetal bovine serum, endothelial cell growth supplement (ECGS), Heparin (Hep) and antibiotics. Cultures were maintained in the cell incubator in a humid atmosphere at 37° C. containing 5% CO2.
(§2) The different peptides to be tested were easily dissolved in DMSO at a concentration of 50 mM and subsequently a 5 mM intermediate dilution was prepared in Dulbecco's PBS which was subjected to two short cycles of sonication, which retendered the peptides completely soluble. […]
(§3) Assays with the different peptides were performed following the protocol explained below. […] Once resuspended in culture medium, they were counted in Newbauer's chamber after a 1:1 dilution with trypan blue. […]
The optical density values per well were obtained by a Biotek Synergy™2 multi-detection microplate reader, using a 590 nm filter and by scanning reading, obtaining the mean values per well.

[2] = system: human pancreatic tumor cell line BXPC3; experiment: In vitro proliferation assay, cancer growth-inhibitory activity (Assay 1, crystal violet staining); format: cell-based; details: BXPC3 cells, peptide 20 μM final concentration, 72 h, FIG. 1-A
Text: as §1, §2, §3
The optical density values per well were obtained by a Biotek Synergy™2 multi-detection microplate reader, using a 590 nm filter and by scanning reading, obtaining the mean values per well. […]

| Substance | effect on the growth of normal non-transformed cells (toxicity) [1] | inhibitory capacity on cancer cell growth (in words) [2] |
| --- | --- | --- |
| Ac-CFEISKY-NH2 [Peptide P1C, CH3-C(O)-CFEISKY-NH2] | did not affect the growth | – |
| CFEISKY-NH2 [Peptide P1A, variant of the P1C peptide wherein the N-terminal end is free and the C-terminal end is amidated] | – | remarkable inhibitory capacity |
| CH3-C(O)-CFEVSKY-NH2 (Ac-CFEVSKY-NH2) [Peptide P1B, variant of the P1C peptide wherein the isoleucine is substituted by a valine] | – | remarkable inhibitory capacity |
